Measured values: patent US20220213170A1, “PEPTIDES” (Hubro Therapeutics AS, priority 2019, published 2022)
Where no end group is shown, it is not given here.

How the values were obtained:
[1] = system: tumour infiltrating Th cells in MSI+ tumours; settings: cited from earlier work
[2] = system: T cells (PBMC) from healthy donors; assay: T-cell proliferation (3H-thymidine uptake, stimulation index) after in vitro stimulation of PBMC with fsp2+fsp4 cocktail; type: cell-based, human; settings: for Immune response of Donor 3: Donor 3, stimulation with fsp2 and fsp4 mixture, FIG. 11; for Immunogenicity relative to fsp3 and fsp4: FIGS. 10 and 11, peptides with wild-type TGFβR2 amino acids vs without; for Immunogenicity (T cell proliferation, stimulation index): first and second round of stimulation with fsp2+fsp4, 10 μM test peptide, FIGS. 10-12
Method: Fresh buffy coats from four healthy donors were obtained from a blood bank.
Peripheral blood mononuclear cells (PBMC) isolated from fresh buffy coats from four healthy donors were counted and suspended in DC medium to 15*10^6 cells/ml, and subsequently diluted with DC-medium to 4*10^6 cells/ml (Table 6).
Four 24-well plates were used for each donor, with 4*10^6 cells per well (each well has a volume of 1 ml).
Peptide cocktail: Solution of peptides fsp2+fsp4, containing 10 μM of each peptide. 40 μl peptide solution was added to each well.
The plates were incubated in a cell incubator for 14 days (37° C., 5% CO2). IL-2 and IL-7 were added on day 3. The cells were inspected daily.
Test peptides: fsp2+fsp4 (SEQ ID NOs: 5 and 7), fsp1 (SEQ ID NO: 4), fsp2 (SEQ ID NO: 5), fsp3 (SEQ ID NO: 6), fsp4 (SEQ ID NO: 7), fsp5 (SEQ ID NO: 3).
Cells and reagents were added to plate wells (in triplicate) as described in Tables 7 and 8 below. The total volume added to each well was 0.20 ml. • T cells (PBMC): 50 000 cells/well (0.25*10^6 cells/ml) • APC: Irradiated (30Gy, 8 minutes) autologous feeder cells: 50 000 cells/well • Peptide (fspx): […] peptide/well (each peptide), concentration: 10 μM peptide. (fsp was dissolved in DMSO before dilution to correct concentration)
The plates were incubated in a cell incubator for 48 hours (37° C., 5% CO2).
After incubation for 48 hours, 20 μl 3H-tThymidine solution (5 μCi/ml) was added to each well and the plates were incubated for approximately 17 hours (37° C., 5% CO2).
After 17 hours the cells were harvested (Unifilters) and dried on the filters at 45° C. until completely dry. After covering the bottom of the Unifilters with adhesive covers (delivered with the Unifilters) 25 μl micro scintillation liquid was added to each well, the plate was covered with TopSeal and 3H-Thymidine uptake was measured as counts per minute (CPM) using a microplate scintillation counter.
The T cell proliferation results after the first round of in vitro stimulation with the cocktail of fsp2 and fsp4 peptides are presented as stimulation index (SI) in FIG. 10. SI=mean CPM (triplicates) of (T cells+APC+test peptide(s)) divided by mean CPM (triplicates) of (T cells+APC). SI≥2 is a clear signal of immunogenicity.
PBMCs harvested after the first in vitro stimulation were re-stimulated in vitro according to the protocol set out above, with 2×10^6 cells per well. T-cell proliferation was tested according to the protocol set out above.
The T cell proliferation results after a second round of in vitro stimulation with the cocktail of fsp2 and fsp4 peptides are presented as stimulation index (SI) in FIG. 11.

[3] = Peptide stability (purity by UPLC after lyophilisation or storage); type: physicochemical; settings: purified peptide, dropped from around 90% before lyophilisation
Method: A batch of fsp5 (SEQ ID NO: 3) was prepared by solid phase peptide synthesis (SPPS) by using FMOC chemistry and Prelude synthesizer (Gyros Protein Technologies Inc., USA). The crude peptide was analysed by UPLC and MS. […] UPLC system: Column; Acquity UPLC BEH C18 […], […], detection; PDA 210-500 nm, solvent A); 0.1% TFA in water, solvent B; 0.1% TFA in MeCN, gradient: 20-70% B (2-10 minutes, linear).
When the purity of the small amount of purified fsp5 (SEQ ID NO: 3) was reassessed by UPLC after lyophilisation, the purity had dropped from around 90% to below 50% as shown in FIG. 4.

[4] = Peptide solubility; type: physicochemical
Method: The peptide was difficult to dissolve and it was attempted to dissolve the crude fsp5 (SEQ ID NO: 3) (˜150 mg) in approximately 4 ml 50% MeCN in water under gentle heating.
Another batch of fsp5 (SEQ ID NO: 3) was prepared, dissolved in neat DMSO under gentle heating and purified by preparative HPLC. Again, only very small amounts of purified fsp5 (SEQ ID NO: 3) were obtained.

[5] = system: T-cells from PMBCs from four healthy donors; assay: T-cell proliferation (stimulation index) after induction of PBMC with fsp2, fsp8 and fsp9 mixture; type: cell-based, human; settings: for Immunogenicity (T-cell proliferation, stimulation index): first round of stimulation, T-cells induced with fsp2+fsp8+fsp9, FIG. 13
Method: The same protocol as that set out in Example 7 was used to test the immunogenicity of fsp6 and fsp7 (SEQ ID NO: 26 and SEQ ID NO: 27, respectively), except for the peptide mixture used to induce T-cells from PMBCs from fresh buffy coats from four healthy donors. The peptide mixture used in this Example to induce T-cells from PMBCs was made up of fsp2 (SEQ ID NO: 5; 10 μM), fsp8 (SEQ ID NO: 31; 10 μM) and fsp9 (SEQ ID NO: 32; 10 μM). Fsp8 (SEQ ID NO: 31; […]) is a peptide of ASTE1 having a −1a frameshift mutation, and fsp9 (SEQ ID NO: 32; […]) is a peptide of TAF1β having a −1a frameshift mutation.
At day 14 after induction, a T-cell proliferation assay was carried out as in Example 7, using fsp2 (SEQ ID NO: 5), fsp6 (SEQ ID NO: 26) and fsp7 (SEQ ID NO: 27) as test peptides. As fsp8 and fsp9 have very different amino acid sequences from fsp2, only fsp2 would be able to induce T-cells which are capable of recognising and being stimulated by fsp2, fsp6 and fsp7. […] Two further rounds of T-cell stimulation were also carried out, with a T-cell proliferation assay being carried out 14 days after each stimulation.
The T-cell proliferation results after the first round of in vitro stimulation are presented as stimulation index (SI) in FIG. 13. […] It is also expected, in view of the results shown in FIGS. 11 and 12, that a peptide having the sequence of fsp6 (SEQ ID NO: 26) but having an amino acid substitution corresponding to that in fsp2, and particularly a C-to-G amino acid substitution as in fsp2, is also immunogenic and is useful as a vaccine or treatment against cancer. […] Thus, it is expected that fsp6a (SEQ ID NO: 28), which is identical to fsp6 (SEQ ID NO: 26) except for the same C-to-G amino acid substitution as fsp2 (SEQ ID NO: 5), will also be immunogenic.

[6] = system: T-cells; settings: after four rounds of stimulation of the T-cells; cited from earlier work
[7] = system: colorectal cancer cell line HCT116; settings: cell line carries the corresponding frameshift mutation; cited from earlier work
[8] = system: CTL; settings: cited from earlier work
[9] = system: CTLs (HLA-A2.1 restricted); settings: cited from earlier work
[10] = patients recognising the peptide

## AMTTSSSQKNITPAILTCC [p537, prior art peptide of mutTGFβR2]
[1]
  Immunogenicity (Saeterdal, PNAS): not immunogenic

## KCIMKEKKSLVRLSSCVPVALMSA (listed as Homo sapiens) [fsp1]
[2]
  Immune response of Donor 3: showed an immune response
  Immunogenicity relative to fsp3 and fsp4: more immunogenic
  Immunogenicity (T cell proliferation, stimulation index): immunogenic

## KCIMKEKKSLVRLSSCVPVALMSAMTTSSSQKN (listed as Homo sapiens) [fsp5]
[2]
  Immunogenicity relative to fsp3 and fsp4: more immunogenic
  Immunogenicity (T cell proliferation, stimulation index): immunogenic
[3]
  Purity by UPLC after lyophilisation (stability): below 50%
[4]; addition of even small amounts of water to crude DMSO solution
  Solubility: effect of water on crude DMSO solution: precipitation of the peptide
[4]; crude peptide ~150 mg in approximately 4 ml 50% MeCN in water under gentle heating
  Solubility: no clear solution could be obtained

## KGIMKEKKSLVRLSSCVPVALMSA (not fully specified) [fsp2]
[5]; FIG. 13
  Immunogenicity relative to fsp7: much more immunogenic
[2]
  Immune response of Donor 3: showed an immune response
  Immunogenicity relative to fsp3 and fsp4: more immunogenic
  Immunogenicity (T cell proliferation, stimulation index): immunogenic

## PKCIMKEKKKSLVRLSSCV [p541, prior art peptide of mutTGFβR2]
[1]
  Immunogenicity (Saeterdal, PNAS): immunogenic
  Induction of T-cell responses in patients: able to induce T-cell responses in some patients

## RLSSCVPVA [p573, prior art peptide of mutTGFβR2]
[6]
  Immunogenicity (FIG. 14 of EP1078000): not immunogenic
[7]
  Lysis of HCT116: able to lyse
[8]
  Generation of CTL line and clones: able to generate a CTL line and several CTL clones
  Immunogenicity (Saeterdal, Cancer Immunol Immunother): immunogenic
[9]; HLA-A2.1 restricted
  Activation of specific CTLs in vitro: capable of activating specific CTLs
[9]
  Immunogenicity (FIG. 1 of Linnebacher et al.): immunogenic

## SLVRLSSCV [p523, prior art peptide of mutTGFβR2]
[6]
  Immunogenicity (FIG. 14 of EP1078000): immunogenic
[9]
  Immunogenicity (FIG. 1 of Linnebacher et al.): not immunogenic

## SLVRLSSCVPVALMSAMTTSSSQ [p538, prior art peptide of mutTGFβR2]
[1]
  Immunogenicity (Saeterdal, PNAS): highly immunogenic
[1]; [10]
  Recognition by patients having spontaneous MSI+ colon cancer: two of three
  Recognition by patients with HNPCC: all three

## SPKCIMKEKKSLVRLSSCVPVA [P540, prior art peptide of mutTGFβR2]
[1]
  Immunogenicity (Saeterdal, PNAS): immunogenic
  Induction of T-cell responses in patients: able to induce T-cell responses in some patients

## SSGVPVALMSAMTTSSSQKN (also: 2TFA salt) [fsp4]
[2]
  Immunogenicity (T cell proliferation, stimulation index): immunogenic

## fsp6: Peptide of SEQ ID NO: 26; same sequence as fsp2 but truncated at the C-terminus and without C-to-G substitution (KCIMKEKKSLVRLSSCV; listed as Homo sapiens)
[5]; FIG. 13
  Immunogenicity relative to fsp2: less immunogenic
  Immunogenicity relative to fsp7: much more immunogenic
[5]
  Immunogenicity (T-cell proliferation, stimulation index): immunogenic

## fsp7: Peptide of SEQ ID NO: 27; same amino acid sequence as fsp2 but truncated at the N-terminus (VRLSSCVPVALMSA; listed as Homo sapiens)
[5]
  Immunogenicity (T-cell proliferation, stimulation index): too truncated at the N-terminus compared to fsp2 (SEQ ID NO 5) to be immunogenic
